Assay [1] deals with T1, DDB1DB/DCAF15 and RBM39 R1R2 complex (Homo sapiens, UniProt Q14498+Q66K64).
T1 construct: Amino acids 150 to 331 of RBM39 were cloned into pGEX4T3; GST (from vector pGEX4T3); TEV cleavage site (N); made in house; host or cells: DDB1DB/His-DCAF15: baculovirus/Sf9 co-expression; RBM39 R1R2: E. coli (pGEX4T3)
Nature of the assay: DCAF15 RBM39 Complex Formation Assay (FRET). The format is binding. Conditions: FRET ratio Em 665/Em 615, incubated overnight at 4° C. From the text: LANCE Eu-W1024 Anti-6×His and SureLight Allophycocyanin-anti-FLAG antibodies were purchased from Perkin Elmer. Human DDB1DB and His-tagged DCAF15 were co-expressed in baculovirus/sf9 system. While full length DDB1 contains three 7-bladed propellers termed A, B, and C, DDB1DB has only propeller A (amino acids 1 to 395) and C (amino acids 709-1140). The His-tagged DCAF15 contains six histidine residues directly preceding the DCAF15 sequence without any linker. An RBM39 fragment containing RRM1 and RRM2 was expressed in E. coli. Amino acids 150 to 331 of RBM39 were cloned into pGEX4T3 with an N-terminal TEV cleavage site and a C-terminal FLAG tag.
A compound of the present disclosure in DMSO (2 μL) was transferred to a 384-well assay plate. Compound was added in 14 points, 3-fold serial dilution (1 μM to 0.6 pico molar) in DMSO. […] FRET assay buffer (25 mM HEPES, pH 7.5, 100 mM NaCl, […], 0.5 mM TCEP, 0.005% Tween-20, 0.2 nM Eu—W1024 Anti-6×His, 50 nM SureLight Allophycocyanin-anti-FLAG, 20 nM DDB1DB/DCAF15, 50 nM RBM39 R1R2) was added and the resulting solution was incubated overnight at 4° C. The plate was placed in a plate reader (Spark 10) with excitation at 1=340 nm and emissions monitored at 1=665 nm and 1=615 nm, and the FRET ratio (Em 665/Em 615) was determined. Low signal controls containing no compound and high signal controls containing 10 mM indisulam were measured for each plate.
EC50 values were calculated using Dotmatics template equation for 4-parameter fit. Results are expressed as % formation using the following equation: […]

Assay [2] deals with HCT116 human colorectal carcinoma cells. Nature of the assay: CellTiter-Glo Luminescent Cell Viability Assay. The format is cell-based. Conditions: HCT-116, 72 h, 3 days. Here is the method:
HCT116 human colorectal carcinoma cells were used in these experiments. HCT116 cells were obtained from ATCC. CellTiter-Glo® Luminescent Cell Viability Assay Reagent was obtained from Promega.
About 3,000 cells were seeded into 96-well plate with […] of media (DMEM supplemented with 10% FBS, 100 units penicillin, and […] streptomycin per mL) the day before the experiment. For compound treatment, the master plate was prepared as follows: 100× compound stocks were prepared in a 96-well plate by 1 to 3 serial dilutions of 0.5 mM DMSO stocks. Each master plate contained serial dilution of 8 compounds, including the control compound E7820. […] of 100× compound stock was added to each well of the assay plate to give final concentrations of […]. Each concentration was tested in triplicate. After 3 days, cell viability was determined using CellTiter-Glo Luminescent Cell Viability Assay Reagent following the manufacturer's recommended protocol. Briefly, […] of CellTiter-Glo reagent was added to each well of the assay plate and the contents were mixed for 3 minutes at 600 rpm on a shaker (Thermomixer R). The plate was immediately placed in a plate reader (Synergy 2) and the luminescence signal (0.5 second per well integration time) was determined. IC50 values were calculated using Dotmatics software.
(ATP-based viability assays read luminescence as a measure of living cells.)

These results are taken from patent publication US20250368627A1, “PYRAZOLESULFONAMIDES AS ANTITUMOR AGENTS” (Peloton Therapeutics, Inc., a fully owned subsidiary of …, priority 2019, published 2025).

pEC50, pIC50: −log10 of the molar value. Some results are limits rather than exact numbers.

T1 sequence (Q66K64 whole entry, the tested form may be a part): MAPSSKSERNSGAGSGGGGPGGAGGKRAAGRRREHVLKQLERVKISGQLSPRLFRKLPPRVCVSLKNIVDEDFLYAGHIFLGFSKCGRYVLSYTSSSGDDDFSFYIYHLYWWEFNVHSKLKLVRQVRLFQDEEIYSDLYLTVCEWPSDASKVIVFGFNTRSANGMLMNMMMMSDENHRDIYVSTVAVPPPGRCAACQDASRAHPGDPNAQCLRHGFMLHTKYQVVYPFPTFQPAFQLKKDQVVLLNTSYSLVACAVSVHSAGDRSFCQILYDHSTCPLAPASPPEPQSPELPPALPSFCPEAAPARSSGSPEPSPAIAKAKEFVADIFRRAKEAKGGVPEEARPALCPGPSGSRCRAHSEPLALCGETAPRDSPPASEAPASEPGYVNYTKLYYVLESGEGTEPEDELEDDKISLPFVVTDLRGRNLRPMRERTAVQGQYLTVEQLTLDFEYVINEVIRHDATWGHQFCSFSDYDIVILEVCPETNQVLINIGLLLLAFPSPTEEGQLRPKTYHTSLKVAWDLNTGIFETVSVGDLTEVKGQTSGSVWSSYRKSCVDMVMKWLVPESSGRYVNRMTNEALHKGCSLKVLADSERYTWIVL
T1 sequence (Q14498 150-331): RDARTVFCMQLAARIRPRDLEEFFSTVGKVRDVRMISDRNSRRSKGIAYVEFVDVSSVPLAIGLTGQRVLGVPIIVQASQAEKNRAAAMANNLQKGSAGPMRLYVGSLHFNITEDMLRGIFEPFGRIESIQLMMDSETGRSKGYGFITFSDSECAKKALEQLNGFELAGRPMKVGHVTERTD
T1 sequence (Q16531 with tags, fused parts or gaps DEL396-708 partner): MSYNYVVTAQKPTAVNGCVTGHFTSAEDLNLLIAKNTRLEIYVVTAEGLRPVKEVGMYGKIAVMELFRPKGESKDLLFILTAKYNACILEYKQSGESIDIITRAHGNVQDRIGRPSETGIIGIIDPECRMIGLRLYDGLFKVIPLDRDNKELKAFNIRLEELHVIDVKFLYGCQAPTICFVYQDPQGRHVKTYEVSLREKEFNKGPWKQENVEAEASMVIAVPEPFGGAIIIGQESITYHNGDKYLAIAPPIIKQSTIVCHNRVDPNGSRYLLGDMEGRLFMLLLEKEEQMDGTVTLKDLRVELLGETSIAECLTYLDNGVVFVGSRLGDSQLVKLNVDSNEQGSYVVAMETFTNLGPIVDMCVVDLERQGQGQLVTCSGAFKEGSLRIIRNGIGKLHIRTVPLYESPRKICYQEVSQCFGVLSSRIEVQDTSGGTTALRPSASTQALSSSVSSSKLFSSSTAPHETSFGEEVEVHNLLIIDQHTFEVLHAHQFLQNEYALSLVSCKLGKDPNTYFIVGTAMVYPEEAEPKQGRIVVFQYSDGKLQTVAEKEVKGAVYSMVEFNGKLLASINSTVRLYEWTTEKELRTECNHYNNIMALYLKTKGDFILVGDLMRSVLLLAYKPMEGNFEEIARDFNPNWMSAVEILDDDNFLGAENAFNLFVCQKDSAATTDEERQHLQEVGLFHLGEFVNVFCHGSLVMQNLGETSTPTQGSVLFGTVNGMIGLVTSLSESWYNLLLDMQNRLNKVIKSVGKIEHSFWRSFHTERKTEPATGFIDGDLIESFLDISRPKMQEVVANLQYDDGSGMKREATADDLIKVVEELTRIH

As a reminder, the pIC50 is the IC50 on a negative log10 scale, so that one unit is a factor of ten. Broadly, the pEC50 is the EC50 on a negative log10 scale, so that one unit is a factor of ten. With `O=S(=O)(Nc1cccc2c(Cl)c[nH]c12)c1cnn(CC2CC2)c1` [Compound 51, N-(3-chloro-1H-indol-7-yl)-1-(cyclopropylmethyl)pyrazole-4-sulfonamide], the pIC50 in assay [1] is above 6.60. Besides, in assay [2], the pEC50 is 6.00 to 6.60.

For `N#CC1(Cn2cc(S(=O)(=O)Nc3cccc4c(Cl)c[nH]c34)cn2)CC1` [Compound 52, N-(3-chloro-1H-indol-7-yl)-1-[(1-cyanocyclopropyl)methyl]pyrazole-4-sulfonamide], the pIC50 in assay [1] was above 6.60. In addition, the pEC50 in assay [2] is 6.00 to 6.60.

`O=S(=O)(Nc1cccc2c(Cl)c[nH]c12)c1cnn(CC2CC(F)(F)C2)c1` [Compound 53, N-(3-chloro-1H-indol-7-yl)-1-[(3,3-difluorocyclobutyl)methyl]pyrazole-4-sulfonamide]: in assay [1], the pIC50 is above 6.60. Further, in assay [2], the pEC50 was below 6.00.

For `Cn1cc(S(=O)(=O)Nc2ccc(F)c3c(Cl)c[nH]c23)cn1` [Compound 54, N-(3-chloro-4-fluoro-1H-indol-7-yl)-1-methyl-pyrazole-4-sulfonamide], the pIC50 in assay [1] was above 6.60. Besides, the pEC50 in assay [2] is 6.00 to 6.60.

For the compound `O=S(=O)(Nc1cccc2c(Cl)c[nH]c12)c1cnn(CF)c1` [Compound 56, N-(3-chloro-1H-indol-7-yl)-1-(fluoromethyl)pyrazole-4-sulfonamide], in assay [1], the pIC50 was above 6.60. Further, in assay [2], the pEC50 was 6.00 to 6.60.

As to `O=S(=O)(Nc1cccc2c(Cl)c[nH]c12)c1cnn(CCCF)c1` [Compound 57, N-(3-chloro-1H-indol-7-yl)-1-(3-fluoropropyl)pyrazole-4-sulfonamide], the negative-log IC50 (pIC50) in assay [1] was above 6.60. For the same compound, in assay [2], the pEC50 is below 6.00.

`N#CCCn1cc(S(=O)(=O)Nc2cccc3c(Cl)c[nH]c23)cn1` [Compound 59, N-(3-chloro-1H-indol-7-yl)-1-(2-cyanoethyl)pyrazole-4-sulfonamide]: the pIC50 in assay [1] is above 6.60. For the same compound, the pEC50 in assay [2] is above 6.60.

For the compound `Cc1ccc(NS(=O)(=O)c2cnn(CC(F)(F)F)c2)c2[nH]cc(C#N)c12` [Compound 60, N-(3-cyano-4-methyl-1H-indol-7-yl)-1-(2,2,2-trifluoroethyl)pyrazole-4-sulfonamide], the pIC50 in assay [1] was above 6.60. Also, the negative logarithm of the EC50 (pEC50) in assay [2] is above 6.60.

Regarding `Cc1ccc(NS(=O)(=O)c2cnn(C3CCC3)c2)c2[nH]cc(C#N)c12` [Compound 61, N-(3-cyano-4-methyl-1H-indol-7-yl)-1-cyclobutyl-pyrazole-4-sulfonamide], the pIC50 in assay [1] is above 6.60. In addition, the pEC50 in assay [2] is 6.00 to 6.60.

With `Cc1ccc(NS(=O)(=O)c2cn[nH]c2)c2[nH]cc(C#N)c12` [Compound 62, N-(3-cyano-4-methyl-1H-indol-7-yl)-1H-pyrazole-4-sulfonamide], the pIC50 in assay [1] is above 6.60. In addition, in assay [2], the pEC50 is 6.00 to 6.60.

As for `Cc1ccc(NS(=O)(=O)c2cnn(C(C)C)c2)c2[nH]cc(C#N)c12` [Compound 63, N-(3-cyano-4-methyl-1H-indol-7-yl)-1-isopropyl-pyrazole-4-sulfonamide], in assay [1], the pIC50 is above 6.60. In addition, the pEC50 in assay [2] was 6.00 to 6.60.

As to `Cc1ccc(NS(=O)(=O)c2cnn(C3COC3)c2)c2[nH]cc(C#N)c12` [Compound 64, N-(3-cyano-4-methyl-1H-indol-7-yl)-1-(oxetan-3-yl)pyrazole-4-sulfonamide], the pIC50 in assay [1] was above 6.60. Besides, the pEC50 in assay [2] is above 6.60.

Turning to `Cn1cc(S(=O)(=O)Nc2ccc(F)c3c(C#N)c[nH]c23)cn1` [Compound 65, N-(3-cyano-4-fluoro-1H-indol-7-yl)-1-methyl-pyrazole-4-sulfonamide], the pIC50 in assay [1] was above 6.60. The pEC50 in assay [2] is 6.00 to 6.60.

Consider `Cc1ccc(NS(=O)(=O)c2cnn(CC(F)F)c2)c2[nH]cc(C#N)c12` [Compound 66, N-(3-cyano-4-methyl-1H-indol-7-yl)-1-(2,2-difluoroethyl)pyrazole-4-sulfonamide], for which, in assay [1], the pIC50 was above 6.60. Further, the pEC50 in assay [2] was above 6.60.
